ChEMBL document CHEMBL5465560, “Selectivity Literature for EUbOPEN Chemogenomic Library” (2024)

Legend:
[1] = biological target: T1, Protein arginine N-methyltransferase 7 (Homo sapiens) (UniProt Q9NVM4); assay: Selectivity interaction (Methyltransferase screen (radiometric assays, panel of 8 PRMTs, 21 protein lysine methyltransferases, 3 DNA methyltransferases, and one RNA methyltransferase)) EUB0000271b PRMT7
T1 sequence (whole entry): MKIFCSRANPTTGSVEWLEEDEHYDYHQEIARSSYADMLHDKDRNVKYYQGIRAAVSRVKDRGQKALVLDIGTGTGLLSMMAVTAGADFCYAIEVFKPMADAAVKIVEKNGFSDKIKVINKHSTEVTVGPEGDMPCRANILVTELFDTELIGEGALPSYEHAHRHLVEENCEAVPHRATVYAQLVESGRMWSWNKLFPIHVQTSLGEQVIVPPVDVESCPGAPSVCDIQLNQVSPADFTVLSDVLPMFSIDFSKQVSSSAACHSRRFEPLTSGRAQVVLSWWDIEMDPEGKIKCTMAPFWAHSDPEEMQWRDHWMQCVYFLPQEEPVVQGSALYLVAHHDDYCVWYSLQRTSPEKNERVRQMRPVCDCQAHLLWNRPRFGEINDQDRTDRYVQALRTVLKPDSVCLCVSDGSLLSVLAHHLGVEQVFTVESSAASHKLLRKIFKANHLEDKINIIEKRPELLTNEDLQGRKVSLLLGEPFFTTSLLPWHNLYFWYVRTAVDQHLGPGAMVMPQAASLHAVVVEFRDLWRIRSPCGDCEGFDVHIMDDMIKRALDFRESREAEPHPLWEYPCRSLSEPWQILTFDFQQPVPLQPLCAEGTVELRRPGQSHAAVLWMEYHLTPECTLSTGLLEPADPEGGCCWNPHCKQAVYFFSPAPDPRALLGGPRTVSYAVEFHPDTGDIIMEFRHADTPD

[2] = biological target: Endothelin-1 receptor (Homo sapiens) (UniProt P25101); assay: Selectivity interaction (Eurofins CEREP Diversity Profile (receptors and ion channels)) EUB0000279b EDNRA; conditions: at 10 µM
Chain of Endothelin-1 receptor (Homo sapiens) (P25101 whole entry): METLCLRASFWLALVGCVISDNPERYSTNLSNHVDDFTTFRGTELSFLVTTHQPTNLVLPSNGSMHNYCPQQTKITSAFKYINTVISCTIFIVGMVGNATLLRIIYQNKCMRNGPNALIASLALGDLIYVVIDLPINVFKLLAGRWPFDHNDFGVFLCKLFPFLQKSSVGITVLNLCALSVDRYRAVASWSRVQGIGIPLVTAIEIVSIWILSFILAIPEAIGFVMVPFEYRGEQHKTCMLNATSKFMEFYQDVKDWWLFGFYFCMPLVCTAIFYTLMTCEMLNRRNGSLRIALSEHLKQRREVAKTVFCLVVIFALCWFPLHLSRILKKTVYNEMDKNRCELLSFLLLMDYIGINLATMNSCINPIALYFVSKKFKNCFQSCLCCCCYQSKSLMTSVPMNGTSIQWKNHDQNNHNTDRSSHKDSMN

[3] = test system: Tyrosine-protein kinase ABL1 (Homo sapiens), P00519 [T315I]; assay: Selectivity interaction (Ambit KINOMEscan and KiNATiv profiling in Jurkat cells) EUB0000090b ABL1; format: cell-based; conditions: at 1 µM
[4] = biological target: Calcium/calmodulin-dependent protein kinase type II subunit gamma (Homo sapiens) (UniProt Q13555); assay: Selectivity interaction (KinomeScan (DiscoverX)) EUB0000655a CAMK2G; conditions: at 10 µM
Chain of Calcium/calmodulin-dependent protein kinase type II subunit gamma (Homo sapiens) (Q13555 whole entry): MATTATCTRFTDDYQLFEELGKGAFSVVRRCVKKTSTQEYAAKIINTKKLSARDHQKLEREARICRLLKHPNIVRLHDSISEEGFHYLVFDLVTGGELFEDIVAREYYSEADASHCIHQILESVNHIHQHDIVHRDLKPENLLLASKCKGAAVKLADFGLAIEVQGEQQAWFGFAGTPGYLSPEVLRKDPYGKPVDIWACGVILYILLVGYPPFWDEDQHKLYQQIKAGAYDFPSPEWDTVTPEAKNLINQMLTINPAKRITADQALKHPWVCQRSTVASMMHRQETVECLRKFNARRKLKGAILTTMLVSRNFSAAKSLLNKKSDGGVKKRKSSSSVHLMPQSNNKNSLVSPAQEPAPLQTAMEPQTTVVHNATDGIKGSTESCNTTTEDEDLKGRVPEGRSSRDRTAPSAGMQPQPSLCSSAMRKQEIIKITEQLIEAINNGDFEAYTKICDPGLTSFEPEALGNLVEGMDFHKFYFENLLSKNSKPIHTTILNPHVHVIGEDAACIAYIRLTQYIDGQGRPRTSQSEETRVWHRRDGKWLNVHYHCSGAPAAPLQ

[5] = biological target: T2, Serine/threonine-protein kinase D3 (Homo sapiens) (UniProt O94806); assay: Selectivity interaction (KinomeScan (DiscoverX)) EUB0000618a PRKD3; conditions: at 10 µM
T2 sequence (whole entry): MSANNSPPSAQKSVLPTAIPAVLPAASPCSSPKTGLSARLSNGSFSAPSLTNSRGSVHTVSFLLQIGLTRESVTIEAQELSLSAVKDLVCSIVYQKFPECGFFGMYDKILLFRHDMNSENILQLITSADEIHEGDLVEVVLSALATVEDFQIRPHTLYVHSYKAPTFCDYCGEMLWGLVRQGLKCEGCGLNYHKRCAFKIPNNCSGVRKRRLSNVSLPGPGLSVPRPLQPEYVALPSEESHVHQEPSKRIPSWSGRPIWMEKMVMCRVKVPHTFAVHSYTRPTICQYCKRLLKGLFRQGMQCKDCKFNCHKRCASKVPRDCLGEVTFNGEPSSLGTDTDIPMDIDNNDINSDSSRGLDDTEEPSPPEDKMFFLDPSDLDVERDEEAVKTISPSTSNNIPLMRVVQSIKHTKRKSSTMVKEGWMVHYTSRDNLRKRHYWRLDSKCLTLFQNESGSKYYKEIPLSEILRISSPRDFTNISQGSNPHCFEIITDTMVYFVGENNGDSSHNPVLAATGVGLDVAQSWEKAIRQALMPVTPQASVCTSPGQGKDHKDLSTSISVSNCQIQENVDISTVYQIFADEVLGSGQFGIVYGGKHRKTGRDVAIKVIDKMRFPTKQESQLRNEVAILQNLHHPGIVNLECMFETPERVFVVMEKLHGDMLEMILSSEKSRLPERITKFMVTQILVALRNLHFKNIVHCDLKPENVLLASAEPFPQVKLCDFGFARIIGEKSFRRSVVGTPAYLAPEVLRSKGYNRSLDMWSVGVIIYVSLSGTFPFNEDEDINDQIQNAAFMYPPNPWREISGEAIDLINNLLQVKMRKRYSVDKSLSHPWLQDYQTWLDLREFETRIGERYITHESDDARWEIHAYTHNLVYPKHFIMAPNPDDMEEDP

[6] = biological target: Mitogen-activated protein kinase kinase kinase kinase 5 (Homo sapiens) (UniProt Q9Y4K4); assay: Selectivity interaction (SelectScreen profiling (Invitrogen)) EUB0000607a MAP4K5; conditions: at 2 µM
Chain of Mitogen-activated protein kinase kinase kinase kinase 5 (Homo sapiens) (Q9Y4K4 whole entry, looked up): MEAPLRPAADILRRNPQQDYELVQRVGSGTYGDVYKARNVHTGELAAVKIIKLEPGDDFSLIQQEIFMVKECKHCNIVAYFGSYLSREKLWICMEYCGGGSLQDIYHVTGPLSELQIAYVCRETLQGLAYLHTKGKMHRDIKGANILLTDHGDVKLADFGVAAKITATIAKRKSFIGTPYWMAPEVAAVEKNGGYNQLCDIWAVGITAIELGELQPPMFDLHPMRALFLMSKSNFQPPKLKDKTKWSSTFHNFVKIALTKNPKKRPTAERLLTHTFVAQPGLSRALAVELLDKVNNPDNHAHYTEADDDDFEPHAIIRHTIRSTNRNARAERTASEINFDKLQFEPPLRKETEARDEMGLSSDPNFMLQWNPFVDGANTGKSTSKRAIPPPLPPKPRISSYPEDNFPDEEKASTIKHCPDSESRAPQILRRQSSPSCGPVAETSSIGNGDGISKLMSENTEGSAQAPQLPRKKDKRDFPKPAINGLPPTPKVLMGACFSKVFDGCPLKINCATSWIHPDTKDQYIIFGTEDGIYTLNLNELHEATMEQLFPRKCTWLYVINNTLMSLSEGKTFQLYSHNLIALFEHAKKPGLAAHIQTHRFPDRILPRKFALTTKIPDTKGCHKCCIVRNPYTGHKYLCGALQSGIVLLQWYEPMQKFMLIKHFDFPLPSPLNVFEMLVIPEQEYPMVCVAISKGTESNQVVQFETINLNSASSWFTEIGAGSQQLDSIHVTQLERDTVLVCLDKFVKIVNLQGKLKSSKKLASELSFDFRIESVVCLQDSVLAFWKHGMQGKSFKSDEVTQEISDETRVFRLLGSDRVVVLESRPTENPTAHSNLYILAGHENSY

[7] = biological target: Serine/threonine-protein kinase PLK3 (Homo sapiens, UniProt Q9H4B4); assay: Selectivity interaction (KinomeScan (DiscoverX)) EUB0001619a PLK3; conditions: at 1 µM
Chain of Serine/threonine-protein kinase PLK3 (Q9H4B4 whole entry, looked up): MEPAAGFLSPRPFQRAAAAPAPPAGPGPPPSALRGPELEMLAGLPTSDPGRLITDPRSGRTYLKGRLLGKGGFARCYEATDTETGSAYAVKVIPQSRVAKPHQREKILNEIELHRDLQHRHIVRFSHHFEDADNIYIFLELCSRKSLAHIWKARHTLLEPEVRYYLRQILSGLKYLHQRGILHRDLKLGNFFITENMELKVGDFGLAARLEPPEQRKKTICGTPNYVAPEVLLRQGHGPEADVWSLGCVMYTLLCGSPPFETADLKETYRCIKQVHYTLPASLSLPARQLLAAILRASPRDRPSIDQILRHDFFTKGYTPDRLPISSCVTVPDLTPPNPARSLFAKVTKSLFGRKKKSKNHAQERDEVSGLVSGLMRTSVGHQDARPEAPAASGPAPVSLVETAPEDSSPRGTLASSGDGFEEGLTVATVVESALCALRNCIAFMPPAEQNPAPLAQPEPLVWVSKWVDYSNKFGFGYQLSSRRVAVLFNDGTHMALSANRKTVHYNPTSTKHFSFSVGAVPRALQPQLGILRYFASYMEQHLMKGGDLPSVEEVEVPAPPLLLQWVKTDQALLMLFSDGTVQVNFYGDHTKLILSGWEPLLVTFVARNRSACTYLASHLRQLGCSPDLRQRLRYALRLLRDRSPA

[8] = test system: Mast/stem cell growth factor receptor Kit (Homo sapiens), P10721 [L576P]; conditions: at 10 µM
Chain of Mast/stem cell growth factor receptor Kit (Homo sapiens), P10721 [L576P] (P10721 whole entry L576P): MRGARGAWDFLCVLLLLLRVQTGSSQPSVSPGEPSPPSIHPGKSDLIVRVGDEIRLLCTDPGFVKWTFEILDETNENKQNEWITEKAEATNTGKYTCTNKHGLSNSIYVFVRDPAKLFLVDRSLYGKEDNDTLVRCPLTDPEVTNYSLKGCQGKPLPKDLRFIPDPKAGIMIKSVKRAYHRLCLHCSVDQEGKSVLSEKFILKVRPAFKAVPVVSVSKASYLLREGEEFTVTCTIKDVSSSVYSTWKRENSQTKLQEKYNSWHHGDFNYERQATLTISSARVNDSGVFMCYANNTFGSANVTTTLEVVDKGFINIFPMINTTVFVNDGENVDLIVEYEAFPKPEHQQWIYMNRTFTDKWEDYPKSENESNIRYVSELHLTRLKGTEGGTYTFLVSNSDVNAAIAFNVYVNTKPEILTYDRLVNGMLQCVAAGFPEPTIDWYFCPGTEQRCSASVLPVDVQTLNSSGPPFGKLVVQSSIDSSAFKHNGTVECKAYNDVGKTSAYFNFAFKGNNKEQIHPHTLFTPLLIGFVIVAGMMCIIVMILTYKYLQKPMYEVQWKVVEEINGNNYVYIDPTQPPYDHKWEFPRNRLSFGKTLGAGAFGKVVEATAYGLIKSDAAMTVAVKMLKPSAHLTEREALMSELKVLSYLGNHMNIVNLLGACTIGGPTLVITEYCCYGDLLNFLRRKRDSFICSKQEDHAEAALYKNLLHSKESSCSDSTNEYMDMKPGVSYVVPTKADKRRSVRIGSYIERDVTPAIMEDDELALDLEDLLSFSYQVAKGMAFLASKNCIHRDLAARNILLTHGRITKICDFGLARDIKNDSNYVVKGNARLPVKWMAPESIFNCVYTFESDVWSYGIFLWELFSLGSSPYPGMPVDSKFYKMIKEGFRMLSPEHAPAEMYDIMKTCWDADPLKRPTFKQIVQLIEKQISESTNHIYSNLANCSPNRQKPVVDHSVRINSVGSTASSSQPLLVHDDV

[9] = biological target: Cell division control protein 42 homolog (Homo sapiens) (UniProt P60953); assay: Selectivity interaction (Kinase panel (Invitrogen)) EUB0000639a CDC42; conditions: at 200 nM
Chain of Cell division control protein 42 homolog (Homo sapiens) (P60953 whole entry, looked up): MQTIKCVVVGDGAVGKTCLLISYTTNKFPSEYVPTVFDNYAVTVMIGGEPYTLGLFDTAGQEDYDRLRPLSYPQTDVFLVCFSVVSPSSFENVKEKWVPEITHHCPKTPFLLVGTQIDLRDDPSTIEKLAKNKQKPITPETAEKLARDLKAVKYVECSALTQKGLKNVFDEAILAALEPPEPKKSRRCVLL

[10] = biological target: T3, Testis-specific serine/threonine-protein kinase 1 (Homo sapiens) (UniProt Q9BXA7); assay: Selectivity interaction (KinomeScan (DiscoverX)) EUB0000092b TSSK1A; conditions: at 10 µM
T3 sequence (whole entry): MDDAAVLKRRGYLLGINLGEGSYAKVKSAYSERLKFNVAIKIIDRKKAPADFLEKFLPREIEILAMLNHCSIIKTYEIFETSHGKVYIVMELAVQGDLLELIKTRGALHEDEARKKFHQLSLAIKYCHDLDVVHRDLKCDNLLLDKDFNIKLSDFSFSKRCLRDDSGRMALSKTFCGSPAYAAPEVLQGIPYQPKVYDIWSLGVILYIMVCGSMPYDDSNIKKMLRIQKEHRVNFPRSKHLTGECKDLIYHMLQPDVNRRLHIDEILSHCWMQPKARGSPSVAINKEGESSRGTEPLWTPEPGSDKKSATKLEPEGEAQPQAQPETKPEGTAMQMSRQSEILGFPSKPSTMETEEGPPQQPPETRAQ

**Q.** Which results are given for `Cc1cc(C)cc([C@@H]2c3cc(C)ccc3NC(=O)CN2C(=O)c2ccc(Br)s2)c1`?
**A.** % of activity ([1]; at 1 µM): 97.7%; % of activity ([1]; at 10 µM): 103%

**Q.** How did the % of control [2] turn out when `CC(=O)c1cc(-c2ccccc2OCC2CC2)c2ncccn12` was run?
**A.** Its % of control is 85%.

**Q.** With `CN(C)C/C=C/C(=O)Nc1ccc(C(=O)N2CCCC(Nc3ncc(Cl)c(-c4c[nH]c5ccccc45)n3)C2)cc1` (stereo unspecified) as the molecule, how does the % of control [3] read?
**A.** The % of control was 100%.

**Q.** With `CN(C)CCOc1ccc(-c2nc(-c3ccncc3)c(-c3ccc4c(c3)CC/C4=N\O)[nH]2)cc1` as the molecule, how does the % of control [4] read?
**A.** Its % of control is 94%.

**Q.** How did the % of control [5] turn out when `O[C@H]1CC[C@H](Nc2ncc3nc(Nc4c(F)cc(F)cc4F)n([C@H]4CCOC4)c3n2)CC1` was run?
**A.** The % of control was 84%.

**Q.** For `CNC(=O)Nc1ccc(-c2nc(N3CC4CCC(C3)O4)c3cnn(C4CCC5(CC4)OCCO5)c3n2)cc1`, which % of inhibition [6] is on record?
**A.** Its % of inhibition is 19%.

**Q.** Which % of control [7] does the source give for `N#Cc1cccc(-c2c[nH]c3ncnc(N4CCOCC4)c23)c1` here?
**A.** Its % of control is 100%.

**Q.** `Cc1cc([C@@H](C)Nc2ccccc2C(=O)O)c2nc(N3CCOCC3)cc(=O)n2c1` [AZD-6482] was tested. Which % of control [8] did it give?
**A.** Its % of control is 95%.

**Q.** How did the % of inhibition [9] turn out when `CC[C@@H]1[C@H](F)C(=O)N[C@@H]1COc1nccc2cc(C(N)=O)c(OC)cc12` [ZIMLOVISERTIB] was run?
**A.** The % of inhibition was 13.7%.

**Q.** For `CCC(=O)N1CCN(c2ccc(-n3c(=O)ccc4cnc5ccc(-c6cnc7ccccc7c6)cc5c43)cc2C(F)(F)F)CC1`, which % of control [10] is on record?
**A.** Its % of control is 100%.
